In patent publication US11365201B2, “Chlorotonil derivatives” (HELMHOLTZ-ZENTRUM FÜR INFEKTIONSFORSCHUNG GMBH, priority 2017, dated 2022):
Values after ≈ are worked out from the molar mass of the structure shown. Like-named read-outs stand apart in the source and are kept apart here.

How the values were obtained:
Type in all cases: cell-based
E. coli TolC (+PMBN) = test: Antimicrobial assay, MIC by microbroth dilution with PMBN; conditions: 16 h, 3 μg/mL polymyxin B nonapeptide (PMBN) added
Procedure: (§1) Bacterial strains used in susceptibility assays (minimum inhibitory concentrations, MIC) were either part of our internal strain collection or were purchased form the German Collection of Microorganisms and Cell Cultures (DSMZ). All compounds were prepared as DMSO stocks and MIC values were determined in standard microbroth dilution assays. Overnight cultures of bacteria were diluted in cation-adjusted Muller-Hinton broth (BBL™, BD) and were adjusted to approximately 10^5 cfu/mL. For the E. coli culture, 3 μg/mL of polymyxin B nonapeptide (PMBN) was added to increase permeability of the outer membrane as chlorotonils were previously shown to not penetrate into Gram-negative cells. Bacteria were grown in the presence of the derivatives in serial dilution for 16 h at their optimal growth temperature. MIC values were determined according to CLSI guidelines (antibiotic concentration at which no visible bacterial growth is observed).

[1] = tested on: P. falciparum 3D7 (sensitive strain); test: Antiplasmodial in vitro drug sensitivity assay (HRP2-ELISA); conditions: P. falciparum 3D7 (sensitive strain), read-out: IC50 against P. falciparum 3D7
Procedure: (§2) Two laboratory strains of P. falciparum, the chloroquine sensitive 3D7 and the multi-resistant Dd2 were kept in continuous culture as previously described (Trager and Jensen 1976). In brief, parasites were kept in complete culture medium (RPMI 1640, 25 mM HEPES, 2 mM L-glutamine, 50 μg/ml gentamicin and 0.5% w/v AlbuMAX) at 37° C., 5% CO2 and 5% oxygen at 5% hematocrit with daily change of medium. Synchronization was performed with sorbitol twice a week (Lambros and Vanderberg 1979).
(§3) In Vitro Drug Sensitivity Assay
(§4) All compounds were dissolved in DMSO at stock dilutions between 25 and 100 mM; the reference drug chloroquine diphosphate (MW: 515.86) was diluted in distilled water and DMSO, respectively. […] Antiplasmodial activity of the different compounds was tested in a drug sensitivity assay against the two laboratory strains using the histidine-rich protein 2 (HRP2) assay as described previously (Noedl 2005). In brief: 96 well plates were pre-coated with the different compounds in a threefold dilution before ring stage parasites were added in complete culture medium at a hematocrit of 1.5% and a parasitemia of 0.05% in a total volume of 225 μl per well. After three days of incubation plates were frozen until analyzed by HRP2-ELISA. All compounds were evaluated in duplicate in at least two independent experiments.

[2] = tested on: P. falciparum Dd2 (resistant strain); test: as above; conditions: P. falciparum Dd2 (resistant strain), read-out: IC50 against P. falciparum Dd2
Procedure: as §2, §3, §4

C. glutamicum DSM-20300 = test: Antimicrobial assay, MIC by microbroth dilution; conditions: 16 h, cation-adjusted Muller-Hinton broth; for MIC: Corynebacterium glutamicum, DSM20300
Procedure: as §1, with “For the E. coli culture, 3 μg/mL of polymyxin B nonapeptide (PMBN) was added to increase permeability of the outer membrane as chlorotonils were previously shown to not penetrate into Gram-negative cells.” left out

S. aureus Newman = test: Antimicrobial assay, MIC by microbroth dilution; conditions: 16 h, cation-adjusted Muller-Hinton broth; for MIC: Staphylococcus aureus, NEWMAN
Procedure: as §1, with “For the E. coli culture, 3 μg/mL of polymyxin B nonapeptide (PMBN) was added to increase permeability of the outer membrane as chlorotonils were previously shown to not penetrate into Gram-negative cells.” left out

B. subtilis DSM-10 = test: Antimicrobial assay, MIC by microbroth dilution; conditions: 16 h, cation-adjusted Muller-Hinton broth; for MIC: Bacillus subtilis, DSM10
Procedure: as §1, with “For the E. coli culture, 3 μg/mL of polymyxin B nonapeptide (PMBN) was added to increase permeability of the outer membrane as chlorotonils were previously shown to not penetrate into Gram-negative cells.” left out

[3] = tested on: L-929 (murine fibroblasts); test: Cytotoxicity assay (MTT, 5 d); conditions: Mus musculus, L929, 120 h
Procedure: Cytotoxicity Assay The murine fibroblast cell line L-929 was obtained from the German Collection of Microorganisms and Cell Cultures (DSMZ) and maintained under conditions recommended by the depositor. Cells were seeded at 6×10^3 cells per well of sterile 96-well plates in 180 μL complete medium and treated with the compounds in serial dilution after 2 h of equilibration. After 5 d, viability was assessed by the MTT method. After 1.5 h incubation with 0.5 mg/mL MTT reagent, cells were washed with PBS and 100 μL of 2-propanol/10 N HCl (250:1) was added. The absorbance at 570 nm was determined on a microplate reader and cell viability was expressed as percentage relative to the respective solvent control. Half-inhibitory concentrations (IC50) were determined by sigmoidal curve fitting.

Gram-positive bacteria = test: Antimicrobial assay, MIC against a range of Gram-positive bacteria (Table 5)
Procedure: as §1, with “For the E. coli culture, 3 μg/mL of polymyxin B nonapeptide (PMBN) was added to increase permeability of the outer membrane as chlorotonils were previously shown to not penetrate into Gram-negative cells.” left out

SMILES | MIC E. coli TolC (+PMBN) (E. coli TolC (+PMBN)) [µg/mL] | IC50 ([1]; Plasmodium falciparum) [µM] | IC50 ([2]; Plasmodium falciparum) [µM] | MIC (C. glutamicum DSM-20300) [µg/mL] | MIC (S. aureus Newman) [µg/mL] | MIC (B. subtilis DSM-10) [µg/mL] | IC50 [3] [nM] | further results
C[C@@H]1C(=O)O[C@@H](C)/C=C/C=C\[C@@H](C)[C@@H]2C=C[C@@H]3C[C@@](C)(O)[C@H](OCC(O)CO)[C@@H](C)[C@H]3[C@@H]2C(=O)C(Cl)(Cl)C1=O (stereo partly shown) [ChA-Epo2-glycerol] | >3.2 | > 1.9 | > 1.9 | > 3.2 | 4 (≈ 6.81 µM) | > 3.2 | – | –
CCCCO[C@@H]1[C@@H](C)[C@H]2[C@@H]3C(=O)C(Cl)(Cl)C(=O)[C@H](C)C(=O)O[C@@H](C)/C=C/C=C\[C@@H](C)[C@@H]3C=C[C@@H]2C[C@@]1(C)O [ChA-Epo2-OBu] | >3.2 | – | – | > 3.2 | 1.6 (≈ 2.81 µM) | 0.8 (≈ 1.4 µM) | 49400 | IC50 ([1]; Plasmodium falciparum, μM): > 11 µM; IC50 ([2]; Plasmodium falciparum, μM): > 11 µM
C[C@@H]1C(=O)O[C@@H](C)/C=C/C=C\[C@@H](C)[C@@H]2C=C[C@@H]3C[C@@](C)(O)[C@H](Br)[C@@H](C)[C@H]3[C@@H]2C(=O)C(Cl)(Cl)C1=O [ChA-Epo2-Br] | 0.2 | 0.0251 | 0.0644 | 0.1 (≈ 0.174 µM) | 0.05 (≈ 0.0868 µM) | 0.05 (≈ 0.0868 µM) | 1100 | –
C[C@@H]1C(=O)O[C@@H](C)/C=C/C=C\[C@@H](C)[C@@H]2C=C[C@@H]3C[C@@](C)(O)[C@H](O)[C@@H](C)[C@H]3[C@@H]2C(=O)C(Cl)(Cl)C1=O [ChA-Epo2-OH] | >6.4 | > 2.17 | > 2.17 | > 6.4 | – | > 6.4 | – | –
C[C@@H]1C(=O)O[C@@H](C)/C=C/C=C\[C@@H](C)[C@@H]2C=C[C@@H]3C[C@@](C)(O)[C@H](OCc4ccccc4)[C@@H](C)[C@H]3[C@@H]2C(=O)C(Cl)(Cl)C1=O [ChA-Epo2-OBn] | >3.2 | – | – | 3.2 (≈ 5.3 µM) | 0.4 (≈ 0.663 µM) | 0.4 (≈ 0.663 µM) | – | –
C[C@H]1[C@H]2[C@@H]3C(=O)/C(Cl)=C(\O)[C@H](C)C(=O)O[C@@H](C)/C=C/C=C\[C@@H](C)[C@@H]3C=C[C@@H]2C[C@@]2(C)O[C@@H]12 [ChB1-Epo] | – | – | – | – | – | – | – | MIC (Gram-positive bacteria; Enterococcus faecalis, E. faecalis 20478, read-out: MIC): 0.8 µg/mL (≈ 1.74 µM); MIC (Gram-positive bacteria; Enterococcus faecalis, E. faecalis 29212, read-out: MIC): 0.8 µg/mL (≈ 1.74 µM); MIC (Gram-positive bacteria; Enterococcus faecium, E. faecium 20477, read-out: MIC): 0.2 µg/mL (≈ 0.434 µM); MIC (Gram-positive bacteria; Enterococcus faecium, VRE, E. faecium 17050 (VRE), read-out: MIC): 32 µg/mL (≈ 69.4 µM); MIC (Gram-positive bacteria; Micrococcus luteus, M. luteus, read-out: MIC): 0.0125 µg/mL (≈ 0.0271 µM); MIC (Gram-positive bacteria; Mycolicibacterium smegmatis, M. smegmatis, read-out: MIC): 16 µg/mL (≈ 34.7 µM); MIC (Gram-positive bacteria; Priestia megaterium, B. megaterium, read-out: MIC): 0.0125 µg/mL (≈ 0.0271 µM); MIC (Gram-positive bacteria; Staphylococcus epidermidis, S. epidermidis 28765, read-out: MIC): 0.05 µg/mL (≈ 0.108 µM); MIC (Gram-positive bacteria; Streptococcus pneumoniae, S. pneumoniae 20566, read-out: MIC): 0.4 µg/mL (≈ 0.868 µM)
CC(C)CCO[C@@H]1[C@@H](C)[C@H]2[C@@H]3C(=O)C(Cl)(Cl)C(=O)[C@H](C)C(=O)O[C@@H](C)/C=C/C=C\[C@@H](C)[C@@H]3C=C[C@@H]2C[C@@]1(C)O [ChA-Epo2-Oisoamyl] | 0.8 | – | – | 3.2 (≈ 5.48 µM) | 1.6 (≈ 2.74 µM) | 0.8 (≈ 1.37 µM) | 44700 | IC50 ([1]; Plasmodium falciparum, μM): > 11 µM; IC50 ([2]; Plasmodium falciparum, μM): > 11 µM
C[C@@H]1C(=O)O[C@@H](C)/C=C/C=C\[C@@H](C)[C@@H]2C=C[C@@H]3C[C@@](C)(O)[C@H](OCCCCO)[C@@H](C)[C@H]3[C@@H]2C(=O)C(Cl)(Cl)C1=O [ChA-Epo2-OBuOH] | 1.6 | – | – | 3.2 (≈ 5.46 µM) | > 3.2 | > 3.2 | – | –
CO[C@@H]1[C@@H](C)[C@H]2[C@@H]3C(=O)C(Cl)(Cl)C(=O)[C@H](C)C(=O)O[C@@H](C)/C=C/C=C\[C@@H](C)[C@@H]3C=C[C@@H]2C[C@@]1(C)O [ChA-Epo2-OMe] | 3.2 | – | – | > 3.2 | – | > 3.2 | > 100000 | IC50 ([1]; Plasmodium falciparum, μM): > 11 µM; IC50 ([2]; Plasmodium falciparum, μM): > 11 µM
C[C@@H]1C(=O)O[C@@H](C)/C=C/C=C\[C@@H](C)[C@@H]2C=C[C@@H]3C[C@@](C)(O)[C@H](F)[C@@H](C)[C@H]3[C@@H]2C(=O)C(Cl)(Cl)C1=O [ChA-Epo2-F] | 0.8 | 0.136 | 0.329 | 0.4 to 0.8 (≈ 0.776 to 1.55 µM) | 0.2 (≈ 0.388 µM) | 0.2 (≈ 0.388 µM) | – | –
CCO[C@@H]1[C@@H](C)[C@H]2[C@@H]3C(=O)C(Cl)(Cl)C(=O)[C@H](C)C(=O)O[C@@H](C)/C=C/C=C\[C@@H](C)[C@@H]3C=C[C@@H]2C[C@@]1(C)O [ChA-Epo2-OEt] | >3.2 | – | – | > 3.2 | – | > 3.2 | > 100000 | IC50 ([1]; Plasmodium falciparum, μM): > 11 µM; IC50 ([2]; Plasmodium falciparum, μM): > 11 µM
CO[C@]1(C)C[C@H]2C=C[C@@H]3[C@@H](C(=O)C(Cl)(Cl)C(=O)[C@H](C)C(=O)O[C@@H](C)/C=C/C=C\[C@H]3C)[C@@H]2[C@H](C)[C@H]1O [ChA-Epo1-OMe] | 0.8 to 1.6 | – | – | > 6.4 | 1.6 (≈ 3.03 µM) | 6.4 (≈ 12.1 µM) | – | –
CC1=C[C@@H](C)[C@H]2[C@@H]3C(O)=C(Cl)C(=O)[C@H](C)C(=O)O[C@@H](C)/C=C/C=C\[C@@H](C)[C@@H]3C=C[C@@H]2C1 [Chlorotonil B (ChB), Chlorotonil B, reference compound] | >3.2 | – | – | – | – | – | – | IC50 [1]: 0.0966 µM; IC50 [2]: 0.0636 µM; MIC C. glutamicum DSM-20300 (C. glutamicum DSM-20300): 0.1 µg/mL (≈ 0.225 µM); MIC S. aureus Newman (S. aureus Newman): 0.2 µg/mL (≈ 0.449 µM); MIC B. subtilis DSM-10 (B. subtilis DSM-10): 0.2 µg/mL (≈ 0.449 µM); MIC (Gram-positive bacteria; B. megaterium): 0.1 µg/mL (≈ 0.225 µM); MIC (Gram-positive bacteria; E. faecalis 20478): >3.2 µg/mL; MIC (Gram-positive bacteria; E. faecalis 29212): >3.2 µg/mL; MIC (Gram-positive bacteria; E. faecium 17050 (VRE)): >3.2 µg/mL; MIC (Gram-positive bacteria; E. faecium 20477): >3.2 µg/mL; MIC (Gram-positive bacteria; M. luteus): 0.4 µg/mL (≈ 0.899 µM); MIC (Gram-positive bacteria; M. smegmatis): 0.0125 µg/mL (≈ 0.0281 µM); MIC (Gram-positive bacteria; S. epidermidis 28765): >3.2 µg/mL; MIC (Gram-positive bacteria; S. pneumoniae 11865 (PRSP)): >16 µg/mL; MIC (Gram-positive bacteria; S. pneumoniae 20566): 1.6 µg/mL (≈ 3.6 µM)
CCO[C@]1(C)C[C@H]2C=C[C@@H]3[C@@H](C(=O)C(Cl)(Cl)C(=O)[C@H](C)C(=O)O[C@@H](C)/C=C/C=C\[C@H]3C)[C@@H]2[C@H](C)[C@H]1O [ChA-Epo1-OEt] | 1.6 | – | – | > 6.4 | > 1.6 | > 6.4 | – | –
C[C@@H]1C(=O)O[C@@H](C)/C=C/C=C\[C@@H](C)[C@@H]2C=C[C@@H]3C[C@@](C)(Cl)[C@H](O)[C@@H](C)[C@H]3[C@@H]2C(=O)C(Cl)(Cl)C1=O [ChA-Epo1-Cl] | 3.2 | > 2.1 | > 2.1 | > 3.2 | 3.2 (≈ 6.02 µM) | 3.2 (≈ 6.02 µM) | – | –
